US20090048214A1, “Methods for Treating Renal Tumors Using 2, 4-Pyrimidinediamine Drug and Prodrug Compounds” (RIGEL PHARMACEUTICALS, INC, priority 2006, published 2009)

Tests used:
[1] = test system: RXF-393 kidney tumor fragments; test: RXF-393 renal carcinoma orthotopic xenograft study; type: in vivo, Nu/nu mice; settings: for median tumor weight: following 16 days of treatment, vehicle 485 mg
Description: RXF-393 kidney tumor fragments were implanted intrarenally into Nu/nu mice. On days 5-20 post-implantation animals were fed the Research Diet chow containing Compound A at the following dose levels: 0 g/kg (control), 0.5 g/kg (expected dose 75 mg/kg/day), 2.0 g/kg (expected dose 300 mg/kg/day), or 3.0 g/kg (expected dose 450 mg/kg/day). Tumors were allowed to grow orthotopically, body weights were measured twice weekly, and the animals were sacrificed on Day 23. Both the implanted kidney and the unimplanted kidney were weighed, and the tumor weight is expressed as the difference in kidney weights for each animal.

[2] = test system: A498 renal carcinoma cells; test: A498 renal carcinoma subcutaneous xenograft study; type: in vivo, NCR nu/nu female mice
Description: NCR nu/nu female mice (8-9 weeks old, Harlan Laboratories, Madison, Wis.) were injected subcutaneously on the right hind flank with 5×10^7 A498 renal carcinoma cells in a 50:50 mixture of cells in PBS and Matrigel® (Cat# 356234, LDEV negative, BD Biosciences, Boston, Mass.). Tumor growth was determined by measuring the tumor in two dimensions (L×W) with electronic calipers (Ultra Cal IV, Fred V Fowler Co, Newton, Mass.). Volume was calculated using Study Director Animal Study Management Software (Studylog Systems, South San Francisco, Calif.) as follows: V=(L×W^2)/2,where L and W are the tumor length and width, respectively. Animals were randomized by stratified tumor size and treatment was initiated when the average tumor size was approximately 82 mm^3 (Study Day 0, 17 days post-injection). Test compound was administered ad libitum in the feed as a formulation of 0, 0.5, 2, or 3 g Compound A per kg of AIN-76A rodent diet (Research Diets, Inc, New Brunswick, N.J.). Animals were weighed and tumors measured twice weekly from the day of cell injection to study termination.

[3] = detailed in US2006/0211657 A1; cited from earlier work

## COc1cc(Nc2ncc(F)c(Nc3ccc4c(n3)N(COP(=O)(O)O)C(=O)C(C)(C)O4)n2)cc(OC)c1OC [Compound A]
[1]; high (3 g/kg) and mid (2 g/kg) dose groups, 16 days of treatment
  reduction in tumor weight vs vehicle: ~10 fold
[1]; high dose 3 g/kg food (450 mg/kg/dose), p<0.0001
  median tumor weight: 63 mg
[1]; low dose group (75 mg/kg/dose, 0.5 g Compound A/kg food)
  reduction in median tumor weight compared with vehicle: approximately 25%
[1]; mid dose 2 g/kg food (300 mg/kg/dose), p<0.0006
  median tumor weight: 74 mg
[2]; 0, 0.5, 2.0, 3.0 g Compound A/kg feed groups
  Mean body weights: not different among the groups
[2]; 0.5, 2.0, 3.0 g Compound A/kg feed
  effect on tumor growth, dose dependence: dose-dependent effect on tumor growth was observed
[2]; 2.0 g Compound A/kg feed, Day 23
  %T/C: 62%
[2]; 2.0 g Compound A/kg feed, by Day 23, control 665, p>0.05
  mean tumor volume: 485 mm^3
[2]; 3.0 g Compound A/kg feed ad libitum, after 24 days of treatment, vehicle 665, p<0.05
  mean tumor volume: 372 mm^3
[2]; 3.0 g Compound A/kg feed, after 24 days of treatment
  median change in tumor volume, treated relative to control (% T/C): 35%
[3]
  metabolism of prodrug in vivo: metabolize in vivo to the corresponding active 2,4-pyrimidinediamine compound, Compound 1
